{"source": "paper PMC6746701", "about": "“A phyB-PIF1-SPA1 kinase regulatory complex promotes photomorphogenesis in Arabidopsis” (Nature Communications, 2019)", "target": "T1, full-length SPA1 (Arabidopsis thaliana, UniProt Q9SYX2, R517E)", "T1 construct": "full length, strep-tagged (3x Flag also cloned), Pichia pastoris GS115, tags kept", "T1 sequence (Q9SYX2 1-1029 R517E)": "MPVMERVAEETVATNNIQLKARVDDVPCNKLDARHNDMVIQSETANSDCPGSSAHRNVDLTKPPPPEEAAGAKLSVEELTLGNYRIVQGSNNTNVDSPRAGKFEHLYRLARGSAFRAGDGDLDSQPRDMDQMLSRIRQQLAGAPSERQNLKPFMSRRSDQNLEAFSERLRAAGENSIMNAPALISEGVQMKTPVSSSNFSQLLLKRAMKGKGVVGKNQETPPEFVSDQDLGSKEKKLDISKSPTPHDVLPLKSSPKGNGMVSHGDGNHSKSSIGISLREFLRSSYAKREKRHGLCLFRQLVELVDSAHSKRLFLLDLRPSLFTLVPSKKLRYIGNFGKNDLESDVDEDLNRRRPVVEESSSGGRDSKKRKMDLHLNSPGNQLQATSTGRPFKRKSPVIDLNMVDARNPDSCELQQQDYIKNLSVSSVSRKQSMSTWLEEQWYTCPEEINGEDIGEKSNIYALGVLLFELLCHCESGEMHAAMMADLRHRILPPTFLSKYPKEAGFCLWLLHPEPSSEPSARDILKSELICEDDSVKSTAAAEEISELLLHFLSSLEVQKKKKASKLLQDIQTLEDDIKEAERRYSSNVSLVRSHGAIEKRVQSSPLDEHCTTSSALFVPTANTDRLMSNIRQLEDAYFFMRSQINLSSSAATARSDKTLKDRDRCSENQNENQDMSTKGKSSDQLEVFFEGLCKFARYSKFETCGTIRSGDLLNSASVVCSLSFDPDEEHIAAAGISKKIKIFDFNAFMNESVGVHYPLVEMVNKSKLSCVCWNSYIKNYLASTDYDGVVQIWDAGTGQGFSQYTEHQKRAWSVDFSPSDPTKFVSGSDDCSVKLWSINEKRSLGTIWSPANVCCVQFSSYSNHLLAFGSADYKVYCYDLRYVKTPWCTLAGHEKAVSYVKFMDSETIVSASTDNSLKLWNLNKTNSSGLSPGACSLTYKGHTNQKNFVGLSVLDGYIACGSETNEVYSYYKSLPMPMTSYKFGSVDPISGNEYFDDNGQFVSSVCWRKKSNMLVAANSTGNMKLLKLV", "experiment": "in vitro kinase assay, autoradiogram", "format": "biochemical", "conditions": "GST-PIF1 as co-substrate, 10 mM MgCl2, pH 7.5, 28 °C; labelled compound (gamma-32P)"}
{"molecule": "Nc1ncnc2c1ncn2[C@@H]1O[C@H](COP(=O)(O)OP(=O)(O)OP(=O)(O)O)[C@@H](O)[C@H]1O", "note": "[ATP]", "values": [{"measurement": "in vitro kinase assay, autoradiogram", "result": "mSPA1 showed significantly reduced PIF1 phosphorylation compared to the wild type SPA1"}]}
